In US12582625B2, “Methods for treating neuroblastoma” (priority 2015, dated 2026):
Where “and” joins values, the source holds several entries; their conditions need not be identical. Equal entries are not always repeated.

Columns and labels:
[1] = NMTRC 002: DFMO serum pharmacokinetics in children with NB; details: for AUC(0-t) / Tmax / Cmax: human, serum
Experimental: Pharmacokinetic (PK) Analytical Method and Sample Collection. Patients were consented for all pharmacokinetic sampling and analysis. […] The extracted samples were injected into a liquid chromatograph equipped with an Atlantis Hilic Silica, 50×4.6 mm, 3 μm column. The mobile phase A was a mixture of Milli-Q type water with acetonitrile and ammonium acetate. The validated calibration range for this assay was from 50 to 100,000 ng/mL. […] Blood was not collected beyond 6 hours post dose as this trial was conducted on an outpatient basis, and this was judged to be an undue burden on patients.
Statistical Methods. […] Urinary polyamine levels were derived from duplicate measurements of individual samples. […] Fisher's Exact Test was used to assess the likelihood that increases in urinary polyamine levels were associated with disease progression. Friedman's test for repeated measures analysis of variance was used to assess changes in contents of individual urinary polyamines.
Samples were collected from patients prior to, and again at times 0.5, 1, 3, and 6 hours following drug administration on days 1 and 8 of the first cycle. […] Subsequent cycles commenced the day following the last day of the previous cycle.

[2] = toxicities related to DFMO alone
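Throughout, for ALT elevation, maximum Grade 2, patients (%): Open-label multicenter phase I 3+3 dose escalation in patients aged 0-21 years with relapsed or refractory neuroblastoma, dosed twice daily.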
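Throughout, for ALT elevation, maximum Grade 3, patients (%): Open-label multicenter phase I 3+3 dose escalation in patients aged 0-21 years with relapsed or refractory neuroblastoma, dosed twice daily.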
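Throughout, for dose-limiting toxicities (DLTs) or drug related serious adverse events (SAEs): Open-label multicenter phase I 3+3 dose escalation in patients aged 0-21 years with relapsed or refractory neuroblastoma, dosed twice daily.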
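Throughout, for tolerability in pediatric patients: Open-label multicenter phase I 3+3 dose escalation in patients aged 0-21 years with relapsed or refractory neuroblastoma, dosed twice daily.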

## NCCCC(N)(C(=O)O)C(F)F (centres unmarked) [DFMO, 2,5-diamino-2-(difluoromethyl) pentanoic acid]
[1]; 500 mg/m^2 PO BID, Cycle 1
  AUC0-6 hrs: 39.90 ± 24.16 (mcg/mL) × hrs
[1]; 750 mg/m^2 PO BID, Cycle 1
  AUC0-6 hrs: 47.36 ± 18.57 (mcg/mL) × hrs
[1]; 750 mg/m^2 PO BID, Cycle 2 (with etoposide)
  AUC0-6 hrs: 62.84 ± 39.47 (mcg/mL) × hrs
[1]; 1000 mg/m^2 PO BID, Cycle 1
  AUC0-6 hrs: 60.05 ± 34.53 (mcg/mL) × hrs
[1]; 1000 mg/m^2 PO BID, Cycle 2 (with etoposide)
  AUC0-6 hrs: 50.18 ± 32.57 (mcg/mL) × hrs
[1]; 1500 mg/m^2 PO BID, Cycle 1
  AUC0-6 hrs: 108.38 ± 53.23 (mcg/mL) × hrs
[1]; 1500 mg/m^2 PO BID, Cycle 2 (with etoposide)
  AUC0-6 hrs: 120.69 ± 31.22 (mcg/mL) × hrs
[1]; from clinical benefit in this study and adult cancer prevention studies
  biologically effective doses of DFMO (serum concentration range): 50-150 μM
[1]; oral, 500 mg/m2
  AUC(0-t): 39000 ng·h/mL
[1]; oral, 1500 mg/m2
  AUC(0-t): 121000 ng·h/mL
[1]; oral, mean tmax, all dose groups
  Tmax: 2.5 to 3.75 h
[1]; po, 500 mg/m2, Cmax mean ± SD, 500 mg/m^2 PO BID, Cycle 1
  Cmax: 9540 ± 5360 ng/mL
[1]; po, 500 mg/m2, tmax, 500 mg/m^2 PO BID, Cycle 1
  Tmax: 3.75 ± 1.39 h
[1]; po, 750 mg/m2, Cmax mean ± SD, 750 mg/m^2 PO BID, Cycle 1
  Cmax: 11900 ± 5220 ng/mL
[1]; po, 750 mg/m2, Cmax mean ± SD, 750 mg/m^2 PO BID, Cycle 2 (with etoposide)
  Cmax: 14200 ± 7920 ng/mL
[1]; po, 750 mg/m2, tmax, 750 mg/m^2 PO BID, Cycle 1
  Tmax: 3.6 ± 1.26 h
[1]; po, 750 mg/m2, tmax, 750 mg/m^2 PO BID, Cycle 2 (with etoposide)
  Tmax: 2.6 ± 0.89 h
[1]; po, 1000 mg/m2, Cmax mean ± SD, 1000 mg/m^2 PO BID, Cycle 1
  Cmax: 14700 ± 9070 ng/mL
[1]; po, 1000 mg/m2, Cmax mean ± SD, 1000 mg/m^2 PO BID, Cycle 2 (with etoposide)
  Cmax: 14300 ± 6180 ng/mL
[1]; po, 1000 mg/m2, tmax, 1000 mg/m^2 PO BID, Cycle 1
  Tmax: 3.17 ± 1.6 h
[1]; po, 1000 mg/m2, tmax, 1000 mg/m^2 PO BID, Cycle 2 (with etoposide)
  Tmax: 3 h
[1]; po, 1500 mg/m2, Cmax mean ± SD, 1500 mg/m^2 PO BID, Cycle 1
  Cmax: 29000 ± 15000 ng/mL
[1]; po, 1500 mg/m2, Cmax mean ± SD, 1500 mg/m^2 PO BID, Cycle 2 (with etoposide)
  Cmax: 30700 ± 8180 ng/mL
[1]; po, 1500 mg/m2, tmax, 1500 mg/m^2 PO BID, Cycle 1
  Tmax: 2.88 ± 1.45 h
[1]; po, 1500 mg/m2, tmax, 1500 mg/m^2 PO BID, Cycle 2 (with etoposide)
  Tmax: 2.5 ± 0.9 h
[1]; in vivo, po
  mean Cmax and AUC versus oral dose: increased in a linear fashion
[1]; patients receiving 500 mg/m^2
  Overall average serum DFMO concentration: 9.54 μg/mL and 52.24 μM
[1]; patients receiving 1500 mg/m^2
  Overall average serum DFMO concentration: 30.71 μg/mL and 168.10 μM
500-1500 mg/m^2 BID, all dose levels
  dose-limiting toxicities (DLTs) or drug related serious adverse events (SAEs): No dose-limiting toxicities (DLTs) or drug related serious adverse events (SAEs) were observed
500-1500 mg/m^2 twice per day by mouth
  tolerability in pediatric patients: well tolerated
Cycle 1 (N = 21)
  ALT elevation, maximum Grade 2, patients (%): 1 (5%)
  ALT elevation, maximum Grade 3, patients (%): 0
  ALT elevation, maximum Grade 4, patients (%): 0
  ALT elevation, maximum Grade 5, patients (%): 0
  AST elevation, maximum Grade 2, patients (%): 0
  AST elevation, maximum Grade 3, patients (%): 1 (5%)
  AST elevation, maximum Grade 4, patients (%): 0
  AST elevation, maximum Grade 5, patients (%): 0
  Anemia, maximum Grade 2, patients (%): 2 (10%)
  Anemia, maximum Grade 3, patients (%): 0
  Anemia, maximum Grade 4, patients (%): 1 (5%)
  Anemia, maximum Grade 5, patients (%): 0
  Anorexia, maximum Grade 2, patients (%): 0
  Anorexia, maximum Grade 3, patients (%): 1 (5%)
  Anorexia, maximum Grade 4, patients (%): 0
  Anorexia, maximum Grade 5, patients (%): 0
  Conjunctivitis, maximum Grade 2, patients (%): 1 (5%)
  Conjunctivitis, maximum Grade 3, patients (%): 0
  Conjunctivitis, maximum Grade 4, patients (%): 0
  Conjunctivitis, maximum Grade 5, patients (%): 0
  Constipation, maximum Grade 2, patients (%): 1 (5%)
  Constipation, maximum Grade 3, patients (%): 0
  Constipation, maximum Grade 4, patients (%): 0
  Constipation, maximum Grade 5, patients (%): 0
  Diarrhea, maximum Grade 2, patients (%): 1 (5%)
  Diarrhea, maximum Grade 3, patients (%): 0
  Diarrhea, maximum Grade 4, patients (%): 0
  Diarrhea, maximum Grade 5, patients (%): 0
  GGT elevation, maximum Grade 2, patients (%): 1 (5%)
  GGT elevation, maximum Grade 3, patients (%): 0
  GGT elevation, maximum Grade 4, patients (%): 0
  GGT elevation, maximum Grade 5, patients (%): 0
  Hypoalbumenia, maximum Grade 2, patients (%): 1 (5%)
  Hypoalbumenia, maximum Grade 3, patients (%): 0
  Hypoalbumenia, maximum Grade 4, patients (%): 0
  Hypoalbumenia, maximum Grade 5, patients (%): 0
  Hypophosphatemia, maximum Grade 2, patients (%): 1 (5%)
  Hypophosphatemia, maximum Grade 3, patients (%): 0
  Hypophosphatemia, maximum Grade 4, patients (%): 0
  Hypophosphatemia, maximum Grade 5, patients (%): 0
  Infection, sinus, maximum Grade 2, patients (%): 0
  Infection, sinus, maximum Grade 3, patients (%): 0
  Infection, sinus, maximum Grade 4, patients (%): 0
  Infection, sinus, maximum Grade 5, patients (%): 0
  Mouth pain, maximum Grade 2, patients (%): 0
  Mouth pain, maximum Grade 3, patients (%): 0
  Mouth pain, maximum Grade 4, patients (%): 0
  Mouth pain, maximum Grade 5, patients (%): 0
  Nausea, maximum Grade 2, patients (%): 0
  Nausea, maximum Grade 3, patients (%): 0
  Nausea, maximum Grade 4, patients (%): 0
  Nausea, maximum Grade 5, patients (%): 0
  Neuropathy, maximum Grade 2, patients (%): 0
  Neuropathy, maximum Grade 3, patients (%): 0
  Neuropathy, maximum Grade 4, patients (%): 0
  Neuropathy, maximum Grade 5, patients (%): 0
  Neutrophil count decrease, maximum Grade 2, patients (%): 1 (5%)
  Neutrophil count decrease, maximum Grade 3, patients (%): 1 (5%)
  Neutrophil count decrease, maximum Grade 4, patients (%): 0
  Neutrophil count decrease, maximum Grade 5, patients (%): 0
  Pain, maximum Grade 2, patients (%): 0
  Pain, maximum Grade 3, patients (%): 0
  Pain, maximum Grade 4, patients (%): 0
  Pain, maximum Grade 5, patients (%): 0
  Platelet count decrease, maximum Grade 2, patients (%): 1 (5%)
  Platelet count decrease, maximum Grade 3, patients (%): 1 (5%)
  Platelet count decrease, maximum Grade 4, patients (%): 0
  Platelet count decrease, maximum Grade 5, patients (%): 0
  Rash, maximum Grade 2, patients (%): 0
  Rash, maximum Grade 3, patients (%): 0
  Rash, maximum Grade 4, patients (%): 0
  Rash, maximum Grade 5, patients (%): 0
  Sleep disturbance, maximum Grade 2, patients (%): 1 (5%)
  Sleep disturbance, maximum Grade 3, patients (%): 0
  Sleep disturbance, maximum Grade 4, patients (%): 0
  Sleep disturbance, maximum Grade 5, patients (%): 0
  Urinary retention, maximum Grade 2, patients (%): 1 (5%)
  Urinary retention, maximum Grade 3, patients (%): 0
  Urinary retention, maximum Grade 4, patients (%): 0
  Urinary retention, maximum Grade 5, patients (%): 0
  Vomiting, maximum Grade 2, patients (%): 1 (5%)
  Vomiting, maximum Grade 3, patients (%): 0
  Vomiting, maximum Grade 4, patients (%): 0
  Vomiting, maximum Grade 5, patients (%): 0
  White blood cell decreased, maximum Grade 2, patients (%): 0
  White blood cell decreased, maximum Grade 3, patients (%): 0
  White blood cell decreased, maximum Grade 4, patients (%): 0
  White blood cell decreased, maximum Grade 5, patients (%): 0
[2]
  ALT increase, N of subjects: 1
  ANC decrease, N of subjects: 2
  AST increase, N of subjects: 1
  anemia, N of subjects: 3
  anorexia, N of subjects: 1
  constipation, N of subjects: 1
  decreased platelet count, N of subjects: 2
  diarrhea, N of subjects: 1
  hypoalbuminemia, N of subjects: 1
  hypophosphatemia, N of subjects: 1
  increased GGT, N of subjects: 1
  infection (conjunctivitis), N of subjects: 1
  sleep disturbance, N of subjects: 1
  urinary retention, N of subjects: 1
  vomiting, N of subjects: 1
Up to 1500 mg/m^2 BID
  maximum tolerated dose (MTD): not established
